Experimental data published in ChEMBL document CHEMBL1201862, “PubChem BioAssay data set” (2004).
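The compound was tested at five concentrations on cells cultured in 96-well plates, with a 48-hour exposure period. GI50: concentration for 50% inhibition of growth.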 Activity calls are given as the source filed them. Cut-off read from the data, not from the text of the source: active = GI50 up to about 1.1 µM and inactive = higher.

What was measured:
Test in all cases: growth of human tumour cells (NCI), 48 h
786-0 = system: 786-0
A498 = system: A498
A549 = system: A549
BT-549 = system: BT-549
HCT-116 = system: HCT-116
HCT-15 = system: HCT-15
MDA-MB-231 = system: MDA-MB-231
NCI-H23 = system: NCI-H23
SNB-19 = system: SNB-19
SNB-75 = system: SNB-75
SW-620 = system: SW-620
TK-10 = system: TK-10
UACC-257 = system: UACC-257
UO-31 = system: UO-31
CAKI-1 = system: CAKI-1
LOX IMVI = system: LOX IMVI
NCI-H522 = system: NCI-H522
SF-295 = system: SF-295
SK-OV-3 = system: SK-OV-3
T47D = system: T47D

SMILES	GI50 (786-0)	GI50 (A498)	GI50 (A549)	GI50 (BT-549)	GI50 (HCT-116)	GI50 (HCT-15) [µM]	GI50 (MDA-MB-231)	GI50 (NCI-H23)	GI50 (SNB-19)	GI50 (SNB-75)	GI50 (SW-620)	GI50 (TK-10)	GI50 (UACC-257)	GI50 (UO-31)	GI50 (CAKI-1)	GI50 (LOX IMVI)	GI50 (NCI-H522)	GI50 (SF-295)	GI50 (SK-OV-3)	GI50 (T47D)
O=S(=O)(/N=C1/S/C(=N\c2ccccc2)N(c2ccccc2)/C1=N/S(=O)(=O)c1ccccc1)c1ccccc1	19 µM (inactive)	11.4 µM (inactive)	22.6 µM (inactive)	24.1 µM (inactive)	17.6 µM (inactive)	14.8	13.7 µM (inactive)	16.4 µM (inactive)	24 µM (inactive)	20.7 µM (inactive)	19.4 µM (inactive)	30.4 µM (inactive)	19.1 µM (inactive)	15.8 µM (inactive)						
CC(N)(/C=C/c1ccccc1)C(=O)O (stereo not drawn)	> 100 µM (inactive)	> 100 µM (inactive)	> 100 µM (inactive)	> 100 µM (inactive)	> 100 µM (inactive)	> 100	> 100 µM (inactive)	> 100 µM (inactive)	> 100 µM (inactive)		> 100 µM (inactive)	> 100 µM (inactive)	> 100 µM (inactive)	> 100 µM (inactive)	> 100 µM (inactive)	> 100 µM (inactive)	> 100 µM (inactive)	> 100 µM (inactive)	> 100 µM (inactive)	
Cc1ccc(S(=O)(=O)Nn2c(-c3ccccc3)c(C#N)c(-c3ccc([N+](=O)[O-])cc3)c(C#N)c2=O)cc1	> 100 µM (inactive)	> 100 µM (inactive)	> 100 µM (inactive)	> 100 µM (inactive)	> 100 µM (inactive)	> 100	> 100 µM (inactive)		40.8 µM (inactive)	96.6 µM (inactive)	> 100 µM (inactive)	> 100 µM (inactive)	> 100 µM (inactive)		> 100 µM (inactive)	> 100 µM (inactive)	13.3 µM (inactive)	> 100 µM (inactive)	> 100 µM (inactive)	
CN1CCN(Cc2ccc(C(=S)Nc3ccccc3)s2)CC1	31.9 µM (inactive)	33.7 µM (inactive)	55 µM (inactive)	15.9 µM (inactive)	42.5 µM (inactive)	21		18.5 µM (inactive)	> 100 µM (inactive)		26.7 µM (inactive)		33.5 µM (inactive)	36.3 µM (inactive)	> 100 µM (inactive)	15.7 µM (inactive)	31 µM (inactive)	32.3 µM (inactive)	86.1 µM (inactive)	59.2 µM (inactive)
C[C@@H]1OC2(O)[C@@H]3CCCN3C(=O)N(Cc3ccccc3)N2C1=O (stereo partly drawn)	> 100 µM (inactive)	> 100 µM (inactive)	> 100 µM (inactive)		> 100 µM (inactive)	> 100	> 100 µM (inactive)	> 100 µM (inactive)	> 100 µM (inactive)	0.331 µM (active)	> 100 µM (inactive)	> 100 µM (inactive)	> 100 µM (inactive)		> 100 µM (inactive)	> 100 µM (inactive)		> 100 µM (inactive)	> 100 µM (inactive)	> 100 µM (inactive)
CCC1=CCC23C(=O)C=CC(=O)C2(C1)C(=O)c1cccc(OC)c1C3=O (stereo not drawn)	11.9 µM (inactive)		23.8 µM (inactive)		14.6 µM (inactive)	18	15.1 µM (inactive)	21.1 µM (inactive)	23.8 µM (inactive)	15.6 µM (inactive)	15.5 µM (inactive)	19.1 µM (inactive)	16.3 µM (inactive)	10.8 µM (inactive)	13.1 µM (inactive)	15.1 µM (inactive)	31.8 µM (inactive)	24.3 µM (inactive)		0.409 µM (active)
N=c1c2c(ncn1N)Oc1c(c(-c3ccccc3)nn1-c1ccccc1)C2c1ccc(Cl)cc1 (stereo not drawn)	1.63 µM (inactive)	1.86 µM (inactive)	1.82 µM (inactive)		1.49 µM (inactive)	1.31	2.63 µM (inactive)	1.87 µM (inactive)	1.47 µM (inactive)	1.5 µM (inactive)	1.75 µM (inactive)	1.76 µM (inactive)	1.76 µM (inactive)	1.64 µM (inactive)	2.1 µM (inactive)	1.48 µM (inactive)		1.66 µM (inactive)	1.85 µM (inactive)	2.3 µM (inactive)
COc1cc([C@@H]2c3cc4c(cc3[C@@H](NC(=O)c3ccc(C#N)cc3)C3COC(=O)[C@@H]32)OCO4)cc(OC)c1O (stereo partly drawn)	0.411 µM (active)	1.02 µM (active)	< 0.01 µM (active)		0.459 µM (active)	2.28		0.198 µM (active)	0.348 µM (active)	0.673 µM (active)	0.331 µM (active)	1.81 µM (inactive)	2.58 µM (inactive)	4.03 µM (inactive)	1.14 µM (inactive)	0.26 µM (active)	0.451 µM (active)	0.233 µM (active)	0.374 µM (active)	
CC(C)[Si](OC1=C(C(=O)N(C)c2ccccc2Cl)CCCC1)(C(C)C)C(C)C	17.1 µM (inactive)	16.9 µM (inactive)	1.57 µM (inactive)			16.1	16.3 µM (inactive)	16.3 µM (inactive)	12.8 µM (inactive)	14.3 µM (inactive)	15.2 µM (inactive)	15.1 µM (inactive)	10.2 µM (inactive)	14.5 µM (inactive)	14.3 µM (inactive)	15.7 µM (inactive)	5.77 µM (inactive)	7.52 µM (inactive)	14.7 µM (inactive)	2.55 µM (inactive)
O=C1[C@@H]2C(c3ccccc3[N+](=O)[O-])=[N+](c3ccccc3)O[C@@H]2C(=O)N1c1ccc(Cc2ccc(N3C(=O)[C@H]4C(c5ccccc5[N+](=O)[O-])=[N+](c5ccccc5)O[C@H]4C3=O)cc2)cc1	> 100 µM (inactive)	> 100 µM (inactive)	> 100 µM (inactive)		> 100 µM (inactive)	> 100		> 100 µM (inactive)	> 100 µM (inactive)	> 100 µM (inactive)	> 100 µM (inactive)	> 100 µM (inactive)	> 100 µM (inactive)	> 100 µM (inactive)	77.8 µM (inactive)	> 100 µM (inactive)	> 100 µM (inactive)	> 100 µM (inactive)	> 100 µM (inactive)	
CC1C[C@]2(C)C(=S)Nc3ccccc3[C@@H]2Nc2ccccc21 (stereo partly drawn)	16.3 µM (inactive)	21.5 µM (inactive)	19.1 µM (inactive)		12.6 µM (inactive)	21.6	13.2 µM (inactive)	15.2 µM (inactive)	21.7 µM (inactive)	13.9 µM (inactive)	25.9 µM (inactive)	19 µM (inactive)	15.6 µM (inactive)	18.7 µM (inactive)	25.4 µM (inactive)	13.4 µM (inactive)		18.5 µM (inactive)		17.9 µM (inactive)
O=C(Nc1ccc(Cl)c(C(F)(F)F)c1)C(=O)C(C(=O)/C=C/c1ccccc1)C1OC(=O)c2ccccc21 (stereo not drawn)	> 100 µM (inactive)	> 100 µM (inactive)	> 100 µM (inactive)		33.1 µM (inactive)	> 100		> 100 µM (inactive)	> 100 µM (inactive)	> 100 µM (inactive)	> 100 µM (inactive)	> 100 µM (inactive)	> 100 µM (inactive)	> 100 µM (inactive)	> 100 µM (inactive)	90.2 µM (inactive)	63.1 µM (inactive)	> 100 µM (inactive)	> 100 µM (inactive)	
CS/C(=C(\S)c1ccccc1)c1ccccc1	> 100 µM (inactive)	> 100 µM (inactive)	> 100 µM (inactive)		> 100 µM (inactive)	> 100		> 100 µM (inactive)	> 100 µM (inactive)	> 100 µM (inactive)	> 100 µM (inactive)	> 100 µM (inactive)	> 100 µM (inactive)	> 100 µM (inactive)	> 100 µM (inactive)	> 100 µM (inactive)	> 100 µM (inactive)	> 100 µM (inactive)	> 100 µM (inactive)	
Fc1cccc(F)c1C1SCc2nc3ccccc3n21 (stereo not drawn) [THIAZOLOBENZIMIDAZOLE]	> 100 µM (inactive)	> 100 µM (inactive)	> 100 µM (inactive)		65.2 µM (inactive)	54.5		45.5 µM (inactive)	> 100 µM (inactive)	> 100 µM (inactive)	> 100 µM (inactive)	61.4 µM (inactive)	60.8 µM (inactive)	51.5 µM (inactive)	> 100 µM (inactive)	80.4 µM (inactive)	53.7 µM (inactive)	39.8 µM (inactive)	> 100 µM (inactive)	
COC(=O)C1(C(=O)OC)N=C(C)OC1c1ccccn1 (stereo not drawn)	> 100 µM (inactive)	> 100 µM (inactive)	> 100 µM (inactive)	> 100 µM (inactive)	> 100 µM (inactive)	> 100		> 100 µM (inactive)	> 100 µM (inactive)	> 100 µM (inactive)	> 100 µM (inactive)	> 100 µM (inactive)	> 100 µM (inactive)	> 100 µM (inactive)	> 100 µM (inactive)	> 100 µM (inactive)		> 100 µM (inactive)	> 100 µM (inactive)	> 100 µM (inactive)
O=C(/C=N/c1ccccc1C(=O)[O-])c1cccs1.O=C(/C=N/c1ccccc1C(=O)[O-])c1cccs1.[Zn+2]	> 100 µM (inactive)	> 100 µM (inactive)	73.8 µM (inactive)		> 100 µM (inactive)	> 100		88.3 µM (inactive)	43.1 µM (inactive)	14.8 µM (inactive)	67.5 µM (inactive)	> 100 µM (inactive)	20.3 µM (inactive)	> 100 µM (inactive)	91 µM (inactive)	27.4 µM (inactive)	21.1 µM (inactive)	20.4 µM (inactive)	20.5 µM (inactive)	
